Test results published in US20210179680A1, “POLYPEPTIDE, DERIVATIVES THEREOF, AND APPLICATION THEREOF IN PREPARATION OF DRUGS HAVING RESISTANCE TO PULMONARY FIBROSIS” (priority 2016, published 2021).
Bridge positions count the residues as written; N and C are the ends. Square brackets hold non-standard residues; d marks the D form. Peptide text beside a SMILES is read from it. S5 = C=CCCC[C@](C)(N)C(=O)O

How the values were obtained:
Type in all cases: in vivo, C57BL/6 mice
[1] = tested on: mice with bleomycin-induced pulmonary fibrosis; assay: HE staining pathomorphology and inflammatory score of bleomycin-induced pulmonary fibrosis; settings: Table 3 groups, 2 mg/kg i.p., after 28 days, grade 0-5
Protocol: (§1) Male C57BL/6 mice were fasted overnight, then anesthetized with 45 mg/kg sodium pentobarbital by injection intraperitoneally (i.p.), and intratracheally injected with bleomycin at a dose of 3 U/kg. The specific operation steps are as follows: cut the neck skin of the mouse with as little trauma as possible, expose the trachea with the assistance of elbow ophthalmic forceps, puncture the trachea and inject about 50 μL of bleomycin into the trachea with a microsyringe, rotate the mouse quickly and stand it upright for 5 minutes in order to make bleomycin evenly enter the left and right lobe, thereby constructing an animal model. The whole operation was performed at a surgical table at about […]. Mice in the sham operation group were intratracheally injected with an equal amount of physiological saline for injection.
General tissue changes and tissue products can be visualized by HE staining method, namely Hematoxylin and Eosin staining method, which is the most commonly used staining method for morphology. Among them, hematoxylin dyeing solution is an alkaline dyeing solution, which mainly makes the chromatin in the nucleus and the ribosome in the cytoplasm purple blue; eosin is an acid dye, which mainly makes the components in the cytoplasm and extracellular matrix red. Pulmonary fibrosis models were made according to the method described in Example 2 and administered in groups according to Table 3. After 28 days, the right lower lobe of lung tissue of the experimental animals was taken, and fixed with 4% (v/v) paraformaldehyde and embedded in paraffin. Section was performed on the largest cross-section of the paraffin block in which the lung tissue embedded, and basic pathological changes was observed through HE staining. […] The administration of polypeptides S1-S11 can reduce lung inflammation caused by bleomycin, and effectively ameliorate lung injury and restore normal lung structure.
The inflammatory grading was observed according to the results of HE staining, and the criteria were as follows (grade 0-5): grade “0”: normal tissue; grade “1”: extremely small inflammatory changes; grade “2”: mild to moderate inflammatory changes without apparent destruction of lung tissue structure; grade “3”: moderate inflammatory injury (thickening of alveolar diaphragm); grade “4”: moderate to severe inflammatory injury with formation of tissue mass, or the normal structure of lung tissue was destroyed by localized pneumonia area; grade “5”: severe inflammatory injury, severe destruction of the localized lung tissue structure, resulting in closure of lumen.
Pulmonary fibrosis models were made according to the method described in Example 2 and administered in groups according to Table 9. After 28 days, the right lower lobe of lung tissue of the experimental animals was taken, and fixed by 4% (v/v) paraformaldehyde and embedded in paraffin. Section was performed on the largest cross-section of the paraffin block in which the lung tissue embedded, and basic pathological changes was observed through HE staining.

[2] = tested on: mice with bleomycin-induced pulmonary fibrosis; assay: Hydroxyproline content in lung of mice with pulmonary fibrosis; settings: Table 3 groups, 2 mg/kg i.p.; left lung lobes; chloramine-T method
Protocol: as §1
(§2) Hydroxyproline accounts for 13.4% (w/w) of collagen, and extremely small amount of elastin, while it is absent in other proteins. […] Pulmonary fibrosis models were prepared according to the method described in Example 2 and administered in groups according to Table 3. The content of hydroxyproline in the lobes of left lung of the animals was measured 28 days later, and the condition of pulmonary fibrosis was evaluated.
The specific method is as follows: the mice in the animal model prepared in Example 2 was feed in a SPF animal room and treated with polypeptide according to the dosing schedule of Table 3, and all left lobes of lung of the experimental animal was taken on the 21st day after the animal model was constructed and the wet weight was recorded. Then 10% (w/w) tissue homogenate was prepared by ultrasonic homogenization using physiological saline. About 150 μL of homogenate supernatant was taken, and 500 μL of alkali hydrolysate was added (provided by Hydroxyproline alkaline hydrolysis kit of Nanjing Jiancheng Bioengineering Technology Co., Ltd.). After vortex mixing, the mixture was treated with alkaline hydrolysis for 40 min under conditions of 120° C., 0.1 Kpa. After adjusting the pH value, the volume was held constant, and the supernatant was taken after performing activated carbon treatment. The hydroxyproline was determined according to the chloramine-T method (the method of the present example refers to the instruction provided with kit, which was purchased from Nanjing Jiancheng Bioengineering Technology Co., Ltd.). […] In FIG. 10, “##” represents that P value is less than 0.01 when comparing the content of hydroxyproline in the administration group with that in the sham operation group; and “*” represents that P value is less than 0.05 and“**” represents that P value is less than 0.01 when comparing the content of hydroxyproline in the administration group with that in bleomycin group.
as §2, with “collagen, and accounts for extremely small” for “collagen, and extremely small”, “in the all lobes of” for “in the lobes of”
The specific method is as follows: the mice in the animal model prepared in Example 2 was feed in an SPF animal room and treated with polypeptide according to the dosing schedule of Table 3, and all the left lobes of lung of the experimental animal was taken on the 21st day after the animal model was constructed and the wet weight was recorded. Then 10% (w/w) tissue homogenate was prepared by ultrasonic homogenization using physiological saline. About 150 μL of homogenate supernatant was taken, and 500 μL of alkali hydrolysate was added (provided by Hydroxyproline alkaline hydrolysis kit of Nanjing Jiancheng Bioengineering Technology Co., Ltd.). After vortex mixing, the mixture was treated with alkaline hydrolysis for 40 min under conditions of 120° C., 0.1 Kpa. […]

[3] = tested on: mice with bleomycin-induced pulmonary fibrosis; assay: Pulmonary function (Flexivent) in mice with pulmonary fibrosis; settings: Table 3 groups, 2 mg/kg i.p.; for Dynamic compliance (mL/cmH2O) / Dynamic elasticity (cmH2O./mL) / Dynamic resistance (cmH2O · s/Ml) / Inspiratory capacity: 28th day after model construction; for pulmonary function of mice with pulmonary fibrosis (in words): FIG. 11
Protocol: as §1
(§3) Pulmonary function is a gold indicator for clinical detection of pulmonary fibrosis in patients. The decline of lung function is generally accompanied by an aggravation of fibrosis, while the improvement of lung function generally represents the recovery of lung tissue structure. Pulmonary fibrosis models were prepared according to the method described in Example 2 and administered in groups according to Table 3. On the 28th day after the construction of the animal model, the mice were anesthetized with sodium pentobarbital (45 mg/kg, i.p.). Lung function was tested by the Flexivent Small-animal respiratory mechanics and the testing methods were TLC and SnapShots (Testing method refers to Lv X, Wang X, Li K, et al. Rupatadine Protects against Pulmonary Fibrosis by Attenuating PAF-Mediated Senescence in Rodents [J]. PloS one, 2013, 8(7): e68631).
as §3, with “lung function also generally represents” for “lung function generally represents”, “to Table 9. 28 days later, the mice” for “to Table 3. On the 28th day after the construction of the animal model, the mice”, “Senescence in Rodents[J]. PloS one,” for “Senescence in Rodents [J]. PloS one,”

Structure (SMILES) | Inflammatory score [1] | hydroxyproline content (μg/mg protein) [2] | Dynamic compliance (mL/cmH2O) [3] | Dynamic elasticity (cmH2O./mL) [3] | Dynamic resistance (cmH2O · s/Ml) [3] | Inspiratory capacity [3] | pulmonary function of mice with pulmonary fibrosis (in words) [3]
CSCC[C@H](NC(=O)[C@H](CC(C)C)NC(=O)[C@@H](N)Cc1c[nH]cn1)C(=O)N[C@@H](C)C(=O)N[C@@]1(C)CCCC=CCCC[C@@](C)(C(=O)N[C@@H](CCCCN)C(=O)N[C@@H](CCCCN)C(=O)N[C@@H](CC(C)C)C(=O)N[C@@H](CCCCN)C(=O)N[C@@H](CCCCN)C(=O)N[C@@H](CCCNC(=N)N)C(=O)O)NC(=O)[C@H](CS)NC(=O)[C@H]([C@@H](C)O)NC(=O)[C@H](Cc2ccccc2)NC1=O [S5, His-Leu-Met-Ala-S5-Phe-Thr-Cys-S5-Lys-Lys-Leu-Lys-Lys-Arg] (H-HLMA[S5]FTC[S5]KKLKKR-OH; staple 5-9; N-terminus and C-terminus assumed) | 2.333 | 0.6575 μg/mg protein | 0.3117 mL/cmH2O | 47.5 cmH2O./mL | 0.85 cmH2O · s/Ml | 0.738 mL | improved
CSCC[C@H](NC(=O)[C@H](CC(C)C)NC(=O)[C@@H](N)Cc1c[nH]cn1)C(=O)N[C@@H](C)C(=O)N[C@@H](CS)C(=O)N[C@@]1(C)CCCC=CCCC[C@@](C)(C(=O)N[C@@H](CCCCN)C(=O)N[C@@H](CC(C)C)C(=O)N[C@@H](CCCCN)C(=O)N[C@@H](CCCCN)C(=O)N[C@@H](CCCNC(=N)N)C(=O)O)NC(=O)[C@H](C)NC(=O)[C@H](CS)NC(=O)[C@H]([C@@H](C)O)NC1=O [S6, His-Leu-Met-Ala-Cys-S5-Thr-Cys-Ala-S5-Lys-Leu-Lys-Lys-Arg] (H-HLMAC[S5]TCA[S5]KLKKR-OH; staple 6-10; N-terminus and C-terminus assumed) | 3 | 0.8337 μg/mg protein | 0.2683 mL/cmH2O | 52.17 cmH2O./mL | 1.067 cmH2O · s/Ml | 0.558 mL | improved
CSCC[C@H](NC(=O)[C@H](CC(C)C)NC(=O)[C@@H](N)Cc1c[nH]cn1)C(=O)N[C@@H](C)C(=O)N[C@@H](CS)C(=O)N[C@@H](Cc1ccccc1)C(=O)N[C@@]1(C)CCCC=CCCC[C@@](C)(C(=O)N[C@@H](CC(C)C)C(=O)N[C@@H](CCCCN)C(=O)N[C@@H](CCCCN)C(=O)N[C@@H](CCCNC(=N)N)C(=O)O)NC(=O)[C@H](CCCCN)NC(=O)[C@H](C)NC(=O)[C@H](CS)NC1=O [S7, His-Leu-Met-Ala-Cys-Phe-S5-Cys-Ala-Lys-S5-Leu-Lys-Lys-Arg] (H-HLMACF[S5]CAK[S5]LKKR-OH; staple 7-11; N-terminus and C-terminus assumed) | 2 | 0.655 μg/mg protein | 0.29 mL/cmH2O | 51 cmH2O./mL | 0.8833 cmH2O · s/Ml | 0.684 mL | improved
CSCC[C@H](NC(=O)[C@H](CC(C)C)NC(=O)[C@@H](N)Cc1c[nH]cn1)C(=O)N[C@@H](C)C(=O)N[C@@H](CS)C(=O)N[C@@H](Cc1ccccc1)C(=O)N[C@H](C(=O)N[C@@]1(C)CCCC=CCCC[C@@](C)(C(=O)N[C@@H](CCCCN)C(=O)N[C@@H](CCCCN)C(=O)N[C@@H](CCCNC(=N)N)C(=O)O)NC(=O)[C@H](CCCCN)NC(=O)[C@H](CCCCN)NC(=O)[C@H](C)NC1=O)[C@@H](C)O [S8, His-Leu-Met-Ala-Cys-Phe-Thr-S5-Ala-Lys-Lys-S5-Lys-Lys-Arg] (H-HLMACFT[S5]AKK[S5]KKR-OH; staple 8-12; N-terminus and C-terminus assumed) | 2.833 | 0.825 μg/mg protein | 0.2583 mL/cmH2O | 66.5 cmH2O./mL | 1.35 cmH2O · s/Ml | 0.626 mL | improved
CSCC[C@H](NC(=O)[C@H](CC(C)C)NC(=O)[C@@H](N)Cc1c[nH]cn1)C(=O)N[C@@H](C)C(=O)N[C@@H](CS)C(=O)N[C@@H](Cc1ccccc1)C(=O)N[C@H](C(=O)N[C@@H](CS)C(=O)N[C@@]1(C)CCCC=CCCC[C@@](C)(C(=O)N[C@@H](CCCCN)C(=O)N[C@@H](CCCNC(=N)N)C(=O)O)NC(=O)[C@H](CC(C)C)NC(=O)[C@H](CCCCN)NC(=O)[C@H](CCCCN)NC1=O)[C@@H](C)O [S9, His-Leu-Met-Ala-Cys-Phe-Thr-Cys-S5-Lys-Lys-Leu-S5-Lys-Arg] (H-HLMACFTC[S5]KKL[S5]KR-OH; staple 9-13; N-terminus and C-terminus assumed) | 2.167 | 0.7212 μg/mg protein | 0.27 mL/cmH2O | 44.5 cmH2O./mL | 1.033 cmH2O · s/Ml | 0.686 mL | improved
